Experiments:
E. coli CFT073 [1] = experiment: Antimicrobial activity assay, E. coli CFT073; assay type: cell-based, Escherichia coli; conditions: for effect of preloading Fe(III) on antibacterial activity: Fe(III)-loaded versus apo conjugates; for concentration providing complete growth inhibition: 200 μM DP (iron-deficient)
Procedure: (§1) Overnight cultures of the bacterial strains were prepared by inoculating 5 mL of LB with the bacterial freezer stocks and the cultures were incubated at 37° C. in a tabletop incubator shaker set at 150 rpm. The overnight culture grew to saturation and was diluted 1:100 into 5 mL of fresh LB medium containing DP (200 μM) and incubated at 37° C. with shaking at 150 rpm until OD600 reached 0.6. The cultures were subsequently diluted to an OD600 value of 0.001 in 50% MHB medium (11.5 g/L) with or without DP (200 μM). No antibiotic marker was included in these cultures. A 90-μL aliquot of the diluted culture was combined with a 10-μL aliquot of a 10× solution of the tested compounds in a 96-well plate, which was wrapped in […] and incubated at 30° C. with shaking at 150 rpm for 19 h. Bacterial growth was determined by measuring OD600 using a BIOTEK SYNERGY HT plate reader. Each well condition was prepared in duplicate, and at least three independent replicates were conducted on different days. The resulting mean OD600 are reported and the error bars are the standard deviation.
In another exemplary experiment, antibacterial activities of the conjugates were tested against E. coli CFT073 in 50% MHB at 30° C., t=19 h. DP (200 μM) was added to provide conditions of iron limitation.
In another exemplary experiment, antibacterial activities of Fe(III)-loaded or apo Ent-β-lactam conjugates (Ent-Amp and Ent-Amx) and their glucosylated derivatives (MGE-Amp, MGE-Amx, DGE-Amp, and DGE-Amx) against the uropathogenic strain E. coli CFT073 were tested in 50% MHB, 30° C., t=19 h. 2,2′-dipyridyl (DP, 200 μM) was added to provide conditions of iron limitation.

E. coli UTI89 = experiment: Antimicrobial activity assay, E. coli UTI89; assay type: cell-based, Escherichia coli; conditions: 50% MHB, 200 μM DP (iron-deficient), 30° C., t=19 h
Procedure: (§2) No antibiotic marker was included in these cultures. […] Bacterial growth was determined by measuring OD600 using a BIOTEK SYNERGY HT plate reader. Each well condition was prepared in duplicate, and at least three independent replicates were conducted on different days. The resulting mean OD600 are reported and the error bars are the standard deviation.
(§3) In another exemplary experiment, antibacterial activities of the conjugates were tested against E. coli UTI89 in 50% MHB at 30° C., t=19 h. […] Under iron-deficient conditions, Ent-Amp, MGE-Amp, and DGE-Amp provided a complete growth inhibition at 100 nM.

[2] = test system: mixed culture of E. coli K-12 and E. coli CFT073; conditions: iron-deficient conditions (200 μM DP), 50% MHB, 30° C., t=19 h
Procedure: (§4) No antibiotic marker was included in these cultures.
2,2′-dipyridyl (DP, 200 μM) was added to provide conditions of iron limitation.

[3] = test system: mixed culture of E. coli K-12 and E. coli UTI89; experiment: Mixed culture assay, E. coli K-12 and E. coli UTI89; assay type: cell-based, Escherichia coli; conditions: iron-deficient conditions (200 μM DP), 50% MHB, 30° C., t=19 h
Excerpt: as §4

E. coli 25922 = experiment: Antimicrobial activity assay, E. coli 25922; assay type: cell-based, Escherichia coli; conditions: 50% MHB, 200 μM DP (iron-deficient), 30° C., t=19 h
Procedure: as §2
as §3, with “25922” for “UTI89”, “Ent-Amp” for “Ent-Amp, MGE-Amp,”, “MGE-Amp” for “DGE-Amp”, “nM whereas 1 μM of DGE-Amp was required to provide a complete growth inhibition.” for “nM.”

E. coli K-12 = experiment: Antimicrobial activity assay, E. coli K-12; assay type: cell-based, Escherichia coli; conditions: for concentrations at which E. coli K-12 was inhibited: inhibition attributed to iron deprivation
Procedure: as §1
In an exemplary experiment, antibacterial activities of the conjugates were tested against E. coli K-12 in 50% MHB at 30° C., t=19 h. 2,2′-dipyridyl (DP, 200 μM) was added to provide conditions of iron limitation.

E. coli CFT073 [4] = experiment: Competition assay with native siderophores, E. coli CFT073; assay type: cell-based, Escherichia coli; conditions: conjugate 100 nM, varied Ent, MGE or DGE, 50% MHB, 200 μM DP, 30° C., t=19 h
Procedure: These assays were performed following the general procedure described herein except that varying concentrations of Ent, MGE, or DGE, each of which was unmodified, were mixed with Ent-Amp, Ent-Amx, MGE-Amp, MGE-Amx, DGE-Amp, or DGE-Amx. Ent was synthesized following a literature procedure^55 and stored as DMSO stock solution at −20° C. MGE and DGE were prepared from Ent using MceC and IroB as described for MGE-PEG3-N3 and DGE-PEG3-N3.
(§5) In another exemplary experiment, select conjugates (Ent-Amp, MGE-Amp, and DGE-Amp) with select native siderophores (Ent, MGE, and DGE) were tested against the uropathogenic strain E. coli CFT073 in 50% MHB, t=19 h, 30° C. 2,2′-dipyridyl (DP, 200 μM) was added to provide conditions of iron limitation. The concentration of the conjugates was fixed at 100 nM and the concentration of the native siderophores was varied.
as §5, with “(Ent-Amx, MGE-Amx,” for “(Ent-Amp, MGE-Amp,”, “DGE-Amx)” for “DGE-Amp)”, “DP (200” for “2,2′-dipyridyl (DP, 200”

E. coli B = experiment: Antimicrobial activity assay, E. coli B; assay type: cell-based, Escherichia coli; conditions: 50% MHB, 30° C., t=19 h
Procedure: as §1
In another exemplary experiment, antibacterial activities of the conjugates were tested against E. coli B in 50% MHB at 30° C., t=19 h. DP (200 μM) was added to provide conditions of iron limitation.

[5] = test system: Salmonella enterica serovar Typhimurium (STM) IR715; experiment: Antibacterial activity assay, Salmonella Typhimurium; assay type: cell-based; conditions: 50% MHB, 100 μM 2,2′-dipyridyl, 30° C., t=19 h
Procedure: FIGS. 12A and 12B show exemplary antibacterial activities of Ent-Amp, Ent-Amx, MGE-Amp, MGE-Amx, DGE-Amp, and DGE-Amx against Salmonella enterica serovar Typhimurium (STM) IR715 (50% MHB with 100 μM 2,2′-dipyridyl to provide conditions of iron limitation, 30° C., t=19 h). (FIG. 12A) Antibacterial activity of Amp and the Amp-containing conjugates (Ent-Amp, MGE-Amp, and DGE-Amp). […] (FIG. 12B) Antibacterial activity of Amx and the Amx-containing conjugates (Ent-Amx, MGE-Amx, and DGE-Amx).

[6] = 50% MHB, 200 μM DP, 30° C., t=19 h

| SMILES | effect of preloading Fe(III) on antibacterial activity (E. coli CFT073 [1]; [6]) | concentration providing complete growth inhibition (E. coli UTI89) [nM] | concentration providing complete growth inhibition (E. coli 25922) [nM] | attenuation of antibacterial activity by native siderophores (E. coli CFT073 [4]) | antibacterial activity relative to the unmodified antibiotic [5] | concentration providing complete growth inhibition (E. coli CFT073 [1]; 50% MHB, 30° C., t=19 h) [nM] | growth inhibition in mixed culture at 100 nM [2] | growth inhibition in mixed culture at 100 nM [3] | antibacterial activity at 100 nM (E. coli K-12; [6]) | concentrations at which E. coli K-12 was inhibited (E. coli K-12) | antibacterial activity at 100 nM (E. coli B; 200 μM DP) | further results |
| --- | --- | --- | --- | --- | --- | --- | --- | --- | --- | --- | --- | --- |
| CC1(C)SC2C(NC(=O)C(NC(=O)CCCc3cn(CCOCCOCCOCCNC(=O)c4cc(O)c(O)c(C(=O)NC5COC(=O)C(NC(=O)c6cccc(O)c6O)COC(=O)C(NC(=O)c6cccc(O)c6O)COC5=O)c4)nn3)c3ccccc3)C(=O)N2C1C(=O)O (stereo not drawn) [Ent-Amp] | no effect | 100 | 100 | only attenuated in the presence of Ent and MGE | enhanced antibacterial activity relative to unmodified Amp | – | – | – | – | – | – | antibacterial activity at 10 nM (E. coli CFT073 [1]; 10 nM, 50% MHB, 200 μM DP, 30° C., t=19 h): slightly less active; concentration providing complete growth inhibition for both strains [2]: 100 nM; concentration providing complete growth inhibition for both strains [3]: 100 nM; concentration providing complete growth inhibition (E. coli K-12; 50% MHB, 200 μM DP (iron-deficient), 30° C., t=19 h): 100 nM; concentration providing complete growth inhibition (E. coli B; 200 μM DP (iron-deficient)): 100 nM |
| CC1(C)SC2C(NC(=O)C(NC(=O)CCCc3cn(CCOCCOCCOCCNC(=O)c4cc(O)c(O)c(C(=O)NC5COC(=O)C(NC(=O)c6cccc(O)c6O)COC(=O)C(NC(=O)c6cccc(O)c6O)COC5=O)c4)nn3)c3ccc(O)cc3)C(=O)N2C1C(=O)O (stereo not drawn) [Ent-Amx] | no effect | – | – | only attenuated in the presence of Ent or MGE | enhanced antibacterial activity relative to unmodified Amx | – | – | – | – | – | – | – |
| CC1(C)SC2C(NC(=O)C(NC(=O)CCCc3cn(CCOCCOCCOCCNC(=O)c4cc(O)c(O)c(C(=O)NC5COC(=O)C(NC(=O)c6cc(C7OC(CO)C(O)C(O)C7O)cc(O)c6O)COC(=O)C(NC(=O)c6cc(C7OC(CO)C(O)C(O)C7O)cc(O)c6O)COC5=O)c4)nn3)c3ccccc3)C(=O)N2C1C(=O)O (stereo not shown) [DGE-Amp] | no effect | 100 | – | attenuated by Ent, MGE, and DGE | enhanced antibacterial activity relative to unmodified Amp | 10 | only inhibited the growth of E. coli CFT073 | only inhibited the growth of E. coli UTI89 | inactive | micromolar concentrations | inactive | improved antibacterial activity against E. coli CFT073 over E. coli K-12 (E. coli CFT073 [1]; CFT073 (FepA and IroN) versus K-12 (FepA only)): 100 fold; concentration required to provide complete growth inhibition (E. coli 25922): 1 µM; concentration at which growth inhibition was observed (attributed to iron deprivation) (E. coli K-12; [6]): 10 µM; concentration at which growth inhibition was observed (attributed to iron deprivation) (E. coli B; 200 μM DP): 10 µM |
| CC1(C)SC2C(NC(=O)C(NC(=O)CCCc3cn(CCOCCOCCOCCNC(=O)c4cc(O)c(O)c(C(=O)NC5COC(=O)C(NC(=O)c6cc(C7OC(CO)C(O)C(O)C7O)cc(O)c6O)COC(=O)C(NC(=O)c6cccc(O)c6O)COC5=O)c4)nn3)c3ccccc3)C(=O)N2C1C(=O)O (stereo not shown) [MGE-Amp] | no effect | 100 | 100 | attenuated by Ent, MGE, and DGE | enhanced antibacterial activity relative to unmodified Amp | 10 | only inhibited the growth of E. coli CFT073 | only inhibited the growth of E. coli UTI89 | inactive | micromolar concentrations | inactive | antibacterial activity, comparison (E. coli K-12; [6]): more active against the bacteria than DGE-Amp; antibacterial activity, comparison (E. coli B; 200 μM DP): more active against the bacteria than DGE-Amp |

Reference: patent US9902986B2, “Enterobactin conjugates and uses thereof” (Massachusetts Institute of Technology, priority 2013, dated 2018)
